Laboratory results reported in EP0414533A1, “Use of iodopropargyl esters of alpha-amino acid derivatives as antimicrobial agents” (ROHM AND HAAS COMPANY, priority 1989, dated 1991).
Read-outs that look alike come from different tables or passages of the source.

Key:
Septoria nodorum (SEP) = assay: In-vitro plant fungicide test; type: cell-based; conditions: Parastagonospora nodorum
[1] = system: Xanthomonas campestris (XAN); assay: In-vitro plant fungicide test; type: cell-based; conditions: Xanthomonas campestris; 25 ppm; Table IVa; read-out: % Control at 25 ppm XAN
Rhizoctonia solani (RHI) = assay: In-vitro plant fungicide test; type: cell-based; conditions: Rhizoctonia solani
[2] = system: Pseudomonas fluorescens (PSFL); assay: Minimum inhibitory concentration (MIC), broth two-fold serial dilution test; conditions: Pseudomonas fluorescens, IIIB, read-out: MIC (G-) PSFL, trypticase soy broth (complex media); Table IIIb
Excerpt: (§1) When the test is ready to be done, each vessel in the dilution series, except the first vessel, contains an equal volume of compound free broth. The first vessel contains twice the volume of broth with the starting concentration of test compound. One half of the broth from the first vessel is transferred to the second vessel. After being mixed, one half the resulting volume is removed from the second vessel and transferred to the third vessel. The entire cycle is repeated sufficiently to give a series of concentrations amounting to 500, 250, 125, 63, 31, 16, 8, and 4 ppm (or 100, 50, 25, 12.5, 6.2, 3.1, 1.6, and 0.8), respectively.
(§2) Each vessel is then inoculated with a cell suspension of the appropriate test organism. Bacteria are grown in broth, fungi on agar slants for a time and at a temperature appropriate to the species being tested, and algae are a mixture of green algae and blue-green bacteria grown in a nutrient media. At the end of the growth period, in the case of bacteria, the broth is vortexed to disperse the cells.
(§3) The vessels are then incubated at the appropriate temperature. After the incubation, the vessels are examined for growth/no growth.

ALT = assay: In-vitro plant fungicide test; type: cell-based; conditions: Table IVb, read-out: % Control at (ppm) indicated ALT
[3] = system: Phytophthora capsici (PHY); assay: In-vitro plant fungicide test; type: cell-based; conditions: Phytophthora capsici
[4] = system: MIXED COOLING TOWER ALGAE; assay: MIC test against mixed cooling tower algae; type: cell-based, green algae and blue-green bacteria; conditions: Table VIII
Procedure: The algae culture contains green algae and blue-green bacteria, and is obtained from a cooling tower in Spring House, Pennsylvania. The algae culture is grown in Allen's medium on a rotary shaker under flourescent room lighting. This culture is further diluted with Allen's medium and then added to the test vessel.

Piricularia oryzae (PIR) = assay: microbe, parasite or virus in culture; type: cell-based
Aspergillus niger (ANIG) = assay: Minimum inhibitory concentration (MIC), broth two-fold serial dilution test; type: cell-based; conditions: Aspergillus niger, IIIB, trypticase soy broth (complex media); Table IIIb; read-out: MIC (F) ANIG
[5] = system: Staphylococcus aureus (SAUR); assay: as above; conditions: Staphylococcus aureus, IIIB, read-out: MIC (G+) SAUR, trypticase soy broth (complex media); Table IIIb
[6] = system: Pseudomonas aerugenosa (PSAE); assay: as above; conditions: Pseudomonas, IIIB, read-out: MIC (G-) PSAE, trypticase soy broth (complex media); Table IIIb
Excerpt: as §1, §2, §3

MON = assay: In-vitro plant fungicide test; type: cell-based; conditions: Table IVb, read-out: % Control at (ppm) indicated MON
Escherichia coli (ECOL) = assay: Minimum inhibitory concentration (MIC), broth two-fold serial dilution test; conditions: Escherichia coli, IIIB, read-out: MIC (G-) ECOL, trypticase soy broth (complex media); Table IIIb
Pythium ultimum (PYU) = assay: In-vitro plant fungicide test; type: cell-based; conditions: Globisporangium ultimum
CER = assay: In-vitro plant fungicide test; type: cell-based; conditions: Table IVb, read-out: % Control at (ppm) indicated CER
UST = assay: In-vitro plant fungicide test; type: cell-based; conditions: Table IVb, read-out: % Control at (ppm) indicated UST
Botrytis cinerea (BOC) = assay: In-vitro plant fungicide test; type: cell-based; conditions: Botrytis cinerea

O=C(CN1C(=O)c2ccccc2C1=O)OCC#CI [Compound 30, N-phthaloylglycine iodopropargyl ester]
6.2 µg/mL: MIC [4]
50%: inhibition of growth at 3 ppm (ALT; 3 ppm)
0.12 µg/mL: MIC (Aspergillus niger (ANIG))
100%: inhibition of growth at 1.5 ppm (Septoria nodorum (SEP); 1.5 ppm, Table IVb, read-out: % Control at (ppm) indicated SEP) | inhibition of growth at 6 ppm (Septoria nodorum (SEP); 6 ppm, Table IVb, read-out: % Control at (ppm) indicated SEP) | inhibition of growth at 25 ppm (Septoria nodorum (SEP); Table IVb, read-out: % Control at (ppm) indicated SEP) | inhibition of growth at 0.8 ppm (Septoria nodorum (SEP); .8 ppm, Table IVb, read-out: % Control at (ppm) indicated SEP) | inhibition of growth at 6 ppm (Rhizoctonia solani (RHI); 6 ppm, Table IVb, read-out: % Control at (ppm) indicated RHI) | inhibition of growth at 25 ppm (Rhizoctonia solani (RHI); Table IVb, read-out: % Control at (ppm) indicated RHI) | inhibition of growth at 12 ppm (ALT; 12 ppm) | inhibition of growth at 25 ppm (ALT; 25 ppm) | inhibition of growth at 1.5 ppm ([3]; 1.5 ppm, Table IVb, read-out: % Control at (ppm) indicated PHY) | inhibition of growth at 6 ppm ([3]; 6 ppm, Table IVb, read-out: % Control at (ppm) indicated PHY) | inhibition of growth at 25 ppm ([3]; Table IVa, read-out: % Control at 25 ppm PHY) | inhibition of growth at 25 ppm ([3]; Table IVb, read-out: % Control at (ppm) indicated PHY) | inhibition of growth at 1.5 ppm (Piricularia oryzae (PIR); 1.5 ppm, read-out: % Control at (ppm) indicated PIR) | inhibition of growth at 6 ppm (Piricularia oryzae (PIR); 6 ppm, read-out: % Control at (ppm) indicated PIR) | inhibition of growth at 25 ppm (Piricularia oryzae (PIR); 25 ppm, read-out: % Control at (ppm) indicated PIR) | inhibition of growth at 0.8 ppm (Piricularia oryzae (PIR); .8 ppm, read-out: % Control at (ppm) indicated PIR) | inhibition of growth at 25 ppm (Piricularia oryzae (PIR); read-out: % Control at 25 ppm PIR) | inhibition of growth at 1.5 ppm (MON; 1.5 ppm) | inhibition of growth at 6 ppm (MON; 6 ppm) | inhibition of growth at 25 ppm (MON; 25 ppm) | inhibition of growth at 0.2 ppm (MON; .2 ppm) | inhibition of growth at 0.4 ppm (MON; .4 ppm) | inhibition of growth at 0.8 ppm (MON; .8 ppm) | inhibition of growth at 1.5 ppm (Pythium ultimum (PYU); 1.5 ppm, Table IVb, read-out: % Control at (ppm) indicated PYU) | inhibition of growth at 6 ppm (Pythium ultimum (PYU); 6 ppm, Table IVb, read-out: % Control at (ppm) indicated PYU) | inhibition of growth at 25 ppm (Pythium ultimum (PYU); Table IVa, read-out: % Control at 25 ppm PYU) | inhibition of growth at 25 ppm (Pythium ultimum (PYU); Table IVb, read-out: % Control at (ppm) indicated PYU) | inhibition of growth at 0.2 ppm (Pythium ultimum (PYU); .2 ppm, Table IVb, read-out: % Control at (ppm) indicated PYU) | inhibition of growth at 0.4 ppm (Pythium ultimum (PYU); .4 ppm, Table IVb, read-out: % Control at (ppm) indicated PYU) | inhibition of growth at 0.8 ppm (Pythium ultimum (PYU); .8 ppm, Table IVb, read-out: % Control at (ppm) indicated PYU) | inhibition of growth at 25 ppm (CER; 25 ppm) | inhibition of growth at 25 ppm (Botrytis cinerea (BOC); Table IVa, *=Phytotoxic, read-out: % Control at 25 ppm BOC)
0%: inhibition of growth at 0.2 ppm (Septoria nodorum (SEP); .2 ppm, Table IVb, read-out: % Control at (ppm) indicated SEP) | inhibition of growth at 0.4 ppm (Septoria nodorum (SEP); .4 ppm, Table IVb, read-out: % Control at (ppm) indicated SEP) | inhibition of growth at 25 ppm [1] | inhibition of growth at 1.5 ppm (Rhizoctonia solani (RHI); 1.5 ppm, Table IVb, read-out: % Control at (ppm) indicated RHI) | inhibition of growth at 0.2 ppm (Rhizoctonia solani (RHI); .2 ppm, Table IVb, read-out: % Control at (ppm) indicated RHI) | inhibition of growth at 0.4 ppm (Rhizoctonia solani (RHI); .4 ppm, Table IVb, read-out: % Control at (ppm) indicated RHI) | inhibition of growth at 0.8 ppm (Rhizoctonia solani (RHI); .8 ppm, Table IVb, read-out: % Control at (ppm) indicated RHI) | inhibition of growth at 1.5 ppm (ALT; 1.5 ppm) | inhibition of growth at 0.2 ppm (ALT; .2 ppm) | inhibition of growth at 0.4 ppm (ALT; .4 ppm) | inhibition of growth at 0.8 ppm (ALT; .8 ppm) | inhibition of growth at 0.2 ppm ([3]; .2 ppm, Table IVb, read-out: % Control at (ppm) indicated PHY) | inhibition of growth at 0.4 ppm ([3]; .4 ppm, Table IVb, read-out: % Control at (ppm) indicated PHY) | inhibition of growth at 0.8 ppm ([3]; .8 ppm, Table IVb, read-out: % Control at (ppm) indicated PHY) | inhibition of growth at 0.2 ppm (Piricularia oryzae (PIR); .2 ppm, read-out: % Control at (ppm) indicated PIR) | inhibition of growth at 0.4 ppm (Piricularia oryzae (PIR); .4 ppm, read-out: % Control at (ppm) indicated PIR) | inhibition of growth at 1.5 ppm (CER; 1.5 ppm) | inhibition of growth at 0.2 ppm (CER; .2 ppm) | inhibition of growth at 0.4 ppm (CER; .4 ppm) | inhibition of growth at 0.8 ppm (CER; .8 ppm) | inhibition of growth at 1.5 ppm (UST; 1.5 ppm) | inhibition of growth at 3 ppm (UST; 3 ppm) | inhibition of growth at 6 ppm (UST; 6 ppm) | inhibition of growth at 12 ppm (UST; 12 ppm) | inhibition of growth at 25 ppm (UST; 25 ppm) | inhibition of growth at 0.2 ppm (UST; .2 ppm) | inhibition of growth at 0.4 ppm (UST; .4 ppm) | inhibition of growth at 0.8 ppm (UST; .8 ppm) | inhibition of growth at 1.5 ppm (Botrytis cinerea (BOC); 1.5 ppm, Table IVb, read-out: % Control at (ppm) indicated BOC) | inhibition of growth at 6 ppm (Botrytis cinerea (BOC); 6 ppm, Table IVb, read-out: % Control at (ppm) indicated BOC) | inhibition of growth at 0.2 ppm (Botrytis cinerea (BOC); .2 ppm, Table IVb, read-out: % Control at (ppm) indicated BOC) | inhibition of growth at 0.4 ppm (Botrytis cinerea (BOC); .4 ppm, Table IVb, read-out: % Control at (ppm) indicated BOC) | inhibition of growth at 0.8 ppm (Botrytis cinerea (BOC); .8 ppm, Table IVb, read-out: % Control at (ppm) indicated BOC)
90%: inhibition of growth at 25 ppm (Rhizoctonia solani (RHI); Table IVa, read-out: % Control at 25 ppm RHI) | inhibition of growth at 6 ppm (ALT; 6 ppm) | inhibition of growth at 25 ppm (Botrytis cinerea (BOC); Table IVb, read-out: % Control at (ppm) indicated BOC)
> 250 µg/mL: MIC [2] | MIC [5] | MIC [6] | MIC (Escherichia coli (ECOL))
75%: inhibition of growth at 25 ppm (Septoria nodorum (SEP); Table IVa, read-out: % Control at 25 ppm SEP)
